Experimental data published in patent US11357813B2, “Composition comprising tannins” (ABOCA S.P.A SOCIETÀ AGRICOLA, priority 2015, dated 2022).

Tests used:
[1] = system: white male mouse oropharynx sections (oral mucosa); experiment: FeCl3 staining of oropharynx sections: interaction of tannin-containing extracts and compositions with the oral mucosa; format: binding; details: sections treated 1 hour with 10%, 5%, 1% and 0.1% in distilled water (w/v); 2% FeCl3 for 15 minutes; optical microscope 40x
Description: 1. Assessment of interaction among plant extracts containing tannins, plant extracts not containing tannins and oral mucosa.
2 μm-thick sections of untreated white male mouse oropharynx, fixed in formalin with 10% phosphate buffer, were used.
Separate deparaffinized and hydrated sections were treated for 1 hour, respectively with
1—10%, 5%, 1% and 0.1% tannic acid in distilled water (weight/volume)
2—10%, 5%, 1% and 0.1% Agrimonia eupatoria extract in distilled water (w/v), equal to, respectively, 100 mg/ml, 50 mg/ml, 10 mg/ml and 1 mg/ml of Agrimonia eupatoria
3—10%, 5%, 1% and 0.1% Hamamelis Virginiana extract in distilled water (w/v), equal to, respectively, 100 mg/ml, 50 mg/ml, 10 mg/ml and 1 mg/ml of Hamamelis Virginiana
4—10%, 5%, 1% and 0.1% Aloe vera extract in distilled water (w/v)
5—10%, 5%, 1% and 0.1% Commiphora myrrha in distilled water (w/v)
6—composition of the invention in the form of tablets (composition example B) in a 10%, 20% 30% and 50% solution, equal to, respectively, 6.67 mg/ml, 13.34 mg/ml, 20.01 mg/ml and 33.35 mg/ml of Agrimonia eupatoria
7—composition of the invention in the form of spray (composition example C) in a 10%, 20%, 50% and 100% solution, equal to, respectively, 3.3 mg/ml, 6.6 mg/ml, 16.5 mg/ml and 33 mg/ml of Agrimonia eupatoria, […]
The sections were analyzed at the optical microscope (40× magnification) and photographed with a digital camera.

[2] = system: laboratory animals; details: cited from earlier work

## O=C(OC[C@H]1O[C@@H](OC(=O)c2cc(O)c(O)c(OC(=O)c3cc(O)c(O)c(O)c3)c2)[C@H](OC(=O)c2cc(O)c(O)c(OC(=O)c3cc(O)c(O)c(O)c3)c2)[C@@H](OC(=O)c2cc(O)c(O)c(OC(=O)c3cc(O)c(O)c(O)c3)c2)[C@@H]1OC(=O)c1cc(O)c(O)c(OC(=O)c2cc(O)c(O)c(O)c2)c1)c1cc(O)c(O)c(OC(=O)c2cc(O)c(O)c(O)c2)c1 [Sample 1, tannic acid]
[1]
  FeCl3 staining of oropharynx sections: Staining intensity is dependent on concentration
[2]
  tumour finding after subcutaneous administration: onset of hepatic tumours
